Patent US8247211B2, “Glycopeptide antibiotics” (American Cyanamid Company, priority 2001, dated 2012)
≈ marks a conversion by molar mass, not a printed value.

Tests used:
Test in all cases: In vitro antibacterial evaluation: minimum inhibitory concentration (MIC), broth dilution method
Assay type in all cases: cell-based
Enterococcus sp. = conditions: broth dilution, 5×10^5 CFU/mL, 18 hours at 35° C.
Experimental: (§1) The minimum inhibitory concentration (MIC), the lowest concentration of the antibiotic which inhibits growth of the test organism, is determined by the broth dilution method using Muller-Hinton II […] (Baltimore Biological Laboratories) following the recommendations of the National Committee for Clinical Laboratory Standards [Methods for dilution antimicrobial susceptibility tests for bacteria that grow aerobically, approved standard M7-A2, National Committee for Clinical Laboratory Standards, Villanova, Pa].
(§2) An inoculum level of 5×10^5 CFU/mL, and a range of antibiotic concentrations (64-0.06 μg/mL) is used. […] The test organisms include a spectrum of Gram-positive bacteria comprised of Staphylococcus sp., Streptococcus sp. and Enterococcus sp. These organisms include recent clinical isolates that are resistant to methicillin, penicillin and/or vancomycin.

Staphylococcus sp. = conditions: for MIC Staphylococcus aureus (ATCC 29213): strain ATCC 29213; for MIC Staphylococcus aureus (GC 1131): strain GC 1131; for MIC Staphylococcus aureus (GC 4541): strain GC 4541; for MIC Staphylococcus aureus (GC 4542): strain GC 4542; for MIC Staphylococcus aureus-SMITH (GC 4543): strain GC 4543; for MIC Staphylococcus aureus (GC 4544): strain GC 4544; for MIC Staphylococcus aureus (GC 4545): strain GC 4545; for MIC Staphylococcus haemolyticus (GC 4546): strain GC 4546; for MIC Coagulase Negative Staphylococcus (GC 4547): strain GC 4547; for MIC Coagulase Negative Staphylococcus (GC 4548): strain GC 4548; for MIC Coagulase Negative Staphylococcus (GC 4549): strain GC 4549; for MIC Coagulase Negative Staphylococcus (GC 4551): strain GC 4551; for MIC Coagulase Negative Staphylococcus (ID-3941): strain ID-3941
Experimental: as §1, §2

Streptococcus sp. = conditions: broth dilution, 5×10^5 CFU/mL, 18 hours at 35° C.
Experimental: as §1, §2

Escherichia coli = conditions: 5×10^5 CFU/mL, 18 hours at 35° C.
Experimental: as §1, §2

[1] = broth dilution, 18 hours at 35° C.

MIC Enterococccus avium (GC 4558) (Enterococcus sp.) [µg/mL] | MIC Enterococccus faecalis (ATCC 29212) (Enterococcus sp.) [µg/mL] | MIC Enterococccus faecalis (GC 4552) (Enterococcus sp.) [µg/mL] | MIC Enterococccus faecalis (GC 4553) (Enterococcus sp.) [µg/mL] | MIC Enterococccus faecalis (GC 4554) (Enterococcus sp.) [µg/mL] | MIC Enterococccus faecium (GC 2243) (Enterococcus sp.) [µg/mL] | MIC Enterococccus faecium (GC 4556) (Enterococcus sp.) [µg/mL] | MIC Enterococccus faecium (GC 4557) (Enterococcus sp.) [µg/mL] | MIC Enterococcus faecalis (GC 2242) (Enterococcus sp.) [µg/mL] | MIC Staphylococcus aureus (ATCC 29213) (Staphylococcus sp.) [µg/mL] | MIC Staphylococcus aureus (GC 1131) (Staphylococcus sp.) [µg/mL] | MIC Staphylococcus aureus (GC 4541) (Staphylococcus sp.) [µg/mL] | MIC Staphylococcus aureus (GC 4542) (Staphylococcus sp.) [µg/mL] | MIC Staphylococcus aureus-SMITH (GC 4543) (Staphylococcus sp.; 18 hours at 35° C.) [µg/mL] | MIC Staphylococcus aureus-SMITH (GC 4543) (Staphylococcus sp.; [1]) [µg/mL] | MIC Staphylococcus aureus (GC 4544) (Staphylococcus sp.) [µg/mL] | MIC Staphylococcus aureus (GC 4545) (Staphylococcus sp.) [µg/mL] | MIC Coagulase Negative Staphylococcus (GC 4547) (Staphylococcus sp.) [µg/mL] | SMILES | MIC Staphylococcus haemolyticus (GC 4546) (Staphylococcus sp.) [µg/mL] | MIC Staphylococcus haemolyticus (GC 4546) (Staphylococcus sp.; [1]) [µg/mL] | other results
16 (≈ 11.2 µM) | 16 (≈ 11.2 µM) | 16 (≈ 11.2 µM) | 16 (≈ 11.2 µM) | 16 (≈ 11.2 µM) | 16 (≈ 11.2 µM) | 16 (≈ 11.2 µM) | 2 (≈ 1.4 µM) | 8 (≈ 5.6 µM) | 2 (≈ 1.4 µM) | 4 (≈ 2.8 µM) | 2 (≈ 1.4 µM) | 4 (≈ 2.8 µM) | 8 (≈ 5.6 µM) | 8 (≈ 5.6 µM) | 4 (≈ 2.8 µM) | 4 (≈ 2.8 µM) | 1 (≈ 0.7 µM) | CC(c1ccccc1)C1NC(=O)CNC(=O)C(CO)NC(=O)C(C(O)C2CNC(=N)N2C2OC(CO)C(O)C(O)C2O)NC(=O)C(C(O)C2CNC(=N)N2)NC(=O)C(Cc2ccc(OC3OC(CO)C(OC4OC(COC(=O)OCc5ccccc5)C(O)C(O)C4O)C(O)C3O)cc2)NC1=O (stereo not drawn) [Example 101a, Cyclo[glycyl-β-methylphenylalanyl-O-[4-O-[6-O-[(phenylmethoxy)carbonyl]hexopyranosyl]-hexopyranosyl]tyrosyl-3-(2-iminoimidazolidin-4-yl)seryl-3-(3-hexopyranosyl-2-iminoimidazolidin-4-yl)serylseryl]] | 1 (≈ 0.7 µM) | 1 (≈ 0.7 µM) | MIC Coagulase Negative Staphylococcus (GC 4547) (Staphylococcus sp.; [1]): 1 µg/mL (≈ 0.7 µM); MIC Coagulase Negative Staphylococcus (GC 4548) (Staphylococcus sp.): 1 µg/mL (≈ 0.7 µM); MIC Coagulase Negative Staphylococcus (GC 4548) (Staphylococcus sp.; [1]): 1 µg/mL (≈ 0.7 µM); MIC Coagulase Negative Staphylococcus (GC 4549) (Staphylococcus sp.): 1 µg/mL (≈ 0.7 µM); MIC Coagulase Negative Staphylococcus (GC 4549) (Staphylococcus sp.; [1]): 1 µg/mL (≈ 0.7 µM); MIC Coagulase Negative Staphylococcus (GC 4551) (Staphylococcus sp.): 2 µg/mL (≈ 1.4 µM); MIC Coagulase Negative Staphylococcus (GC 4551) (Staphylococcus sp.; [1]): 2 µg/mL (≈ 1.4 µM); MIC Coagulase Negative Staphylococcus (ID-3941) (Staphylococcus sp.): 1 µg/mL (≈ 0.7 µM); MIC Coagulase Negative Staphylococcus (ID-3941) (Staphylococcus sp.; [1]): 1 µg/mL (≈ 0.7 µM); MIC Streptococcus agalactiae (GC 4564) (Streptococcus sp.): 1 µg/mL (≈ 0.7 µM); MIC Streptococcus pneumoniae (GC 4565) (Streptococcus sp.): <0.5 µg/mL; MIC Streptococcus pyogenes (ID-3187) (Streptococcus sp.): 1 µg/mL (≈ 0.7 µM); MIC Escherichia coli (ATCC 25922) (Escherichia coli): 64 µg/mL (≈ 44.8 µM)
4 (≈ 2.82 µM) | 8 (≈ 5.64 µM) | 4 (≈ 2.82 µM) | 4 (≈ 2.82 µM) | 8 (≈ 5.64 µM) | 4 (≈ 2.82 µM) | 8 (≈ 5.64 µM) | 2 (≈ 1.41 µM) | 4 (≈ 2.82 µM) | 2 (≈ 1.41 µM) | 2 (≈ 1.41 µM) | 2 (≈ 1.41 µM) | 2 (≈ 1.41 µM) | 2 (≈ 1.41 µM) | 2 (≈ 1.41 µM) | 4 (≈ 2.82 µM) | 2 (≈ 1.41 µM) | 2 (≈ 1.41 µM) | N=C1NCC(C(O)C2NC(=O)C(Cc3ccc(OC4OC(CO)C(OC5OC(CO)C(O)C6OC7(OC56)C5CC6CC(C5)CC7C6)C(O)C4O)cc3)NC(=O)C(CC3CCCCC3)NC(=O)CNC(=O)C(CO)NC(=O)C(C(O)C3CNC(=N)N3C3OC(CO)C(O)C(O)C3O)NC2=O)N1 (stereo not shown) [Example 106a, Cyclo[3-cyclohexylalanyl-O-[4-O-[2,3-O-(2-adamantylidene)hexopyranosyl]hexopyranosyl]-tyrosyl-3-(2-iminoimidazolidin-4-yl)seryl-3-(3-hexopyranosyl-2-iminoimidazolidin-4-yl)-serylserylglycyl]] | 2 (≈ 1.41 µM) | 2 (≈ 1.41 µM) | MIC Enterococccus faecalis (GC 2691) (Enterococcus sp.): 4 µg/mL (≈ 2.82 µM); MIC Enterococccus faecalis (GC 3059) (Enterococcus sp.): 8 µg/mL (≈ 5.64 µM); MIC Enterococccus faecalis (GC 6189) (Enterococcus sp.): 4 µg/mL (≈ 2.82 µM); MIC Staphylococcus aureus (GC 3051) (Staphylococcus sp.; strain GC 3051): 2 µg/mL (≈ 1.41 µM); MIC Staphylococcus aureus (GC 3053) (Staphylococcus sp.; strain GC 3053): 2 µg/mL (≈ 1.41 µM); MIC Coagulase Negative Staphylococcus (GC 4547) (Staphylococcus sp.; [1]): 2 µg/mL (≈ 1.41 µM); MIC Coagulase Negative Staphylococcus (GC 4548) (Staphylococcus sp.): 1 µg/mL (≈ 0.704 µM); MIC Coagulase Negative Staphylococcus (GC 4548) (Staphylococcus sp.; [1]): 1 µg/mL (≈ 0.704 µM); MIC Coagulase Negative Staphylococcus (GC 4549) (Staphylococcus sp.): 1 µg/mL (≈ 0.704 µM); MIC Coagulase Negative Staphylococcus (GC 4549) (Staphylococcus sp.; [1]): 1 µg/mL (≈ 0.704 µM); MIC Coagulase Negative Staphylococcus (GC 4551) (Staphylococcus sp.): 2 µg/mL (≈ 1.41 µM); MIC Coagulase Negative Staphylococcus (GC 4551) (Staphylococcus sp.; [1]): 2 µg/mL (≈ 1.41 µM); MIC Streptococcus agalactiae (GC 4564) (Streptococcus sp.): 0.25 µg/mL (≈ 0.176 µM); MIC Streptococcus pneumoniae (GC 1894) (Streptococcus sp.): <0.06 µg/mL; MIC Streptococcus pneumoniae (GC 4565) (Streptococcus sp.): <0.06 µg/mL; MIC Streptococcus pneumonine (ATCC 6301) (Streptococcus sp.): 0.12 µg/mL (≈ 0.0845 µM); MIC Streptococcus pyogenes (GC 4563) (Streptococcus sp.): 0.25 µg/mL (≈ 0.176 µM); MIC Escherichia coli (ATCC 25922) (Escherichia coli): 32 µg/mL (≈ 22.5 µM); MIC Escherichia coli (GC 4559) (Escherichia coli): 32 µg/mL (≈ 22.5 µM); MIC Escherichia coli (GC 4560) (Escherichia coli): 2 µg/mL (≈ 1.41 µM)
